Results taken from BindingDB's records for doi:10.1016/j.bmcl.2011.11.036 (Pfizer, 2011).

Experiment: Inhibition of mouse Sky kinase assessed as inhibition of src substrate phosphorylation by ELISA

IC50 | SMILES
843 nM | COc1ccc2cc(C(=O)N3C[C@]4(CCN(C5CCNC5)C4)c4ccccc43)[nH]c2c1 (stereo partly drawn)
4930 nM | CCN1CCCC(N2CC[C@]3(CN(C(=O)c4cc5cc(F)ccc5[nH]4)c4ccccc43)C2)C1 (stereo partly drawn)
4410 nM | O=C(c1cc2cc(F)ccc2[nH]1)N1C[C@]2(CCN(CC3CCCNC3)C2)c2ccccc21 (stereo partly drawn)
189 nM | C[C@@H]1CCC(N2CC[C@]3(CN(C(=O)c4cc5ccc(F)cc5[nH]4)c4ccccc43)C2)CN1 (stereo partly drawn)
501 nM | COc1ccc2[nH]c(C(=O)N3C[C@]4(CCN(C5CCNC5)C4)c4ccccc43)cc2c1 (stereo partly drawn)
1810 nM | O=C(c1cc2cc(F)ccc2[nH]1)N1C[C@]2(CCN(C3CNC3)C2)c2ccccc21
8660 nM | O=C(c1cc2cc(Cl)ccc2[nH]1)N1C[C@]2(CCN(C3CCNCC3)C2)c2ccccc21
598 nM | O=C(c1cc2ccc(F)cc2[nH]1)N1C[C@]2(CCN(C3CCNC3)C2)c2ccccc21 (stereo partly drawn)
1130 nM | N#Cc1ccc2cc(C(=O)N3C[C@]4(CCN(C5CCNC5)C4)c4ccccc43)[nH]c2c1 (stereo partly drawn)
1040 nM | O=C(c1cc2cc(Cl)ccc2[nH]1)N1C[C@]2(CCN(C3CCCNC3)C2)c2ccccc21 (stereo partly drawn)
811 nM | Cc1ccc2[nH]c(C(=O)N3C[C@]4(CCN(C5CCNC5)C4)c4ccccc43)cc2c1 (stereo partly drawn)
560 nM | O=C(c1cc2c(Cl)cccc2[nH]1)N1C[C@]2(CCN(C3CCNC3)C2)c2ccccc21 (stereo partly drawn)
27900 nM | O=C(c1cc2cc(F)ccc2[nH]1)N1C[C@]2(CCN(C3CCCCC3)C2)c2ccccc21
37800 nM | Cc1ccc(N2CC[C@@]3(C2)CN(C(=O)c2cc4cc(F)ccc4[nH]2)c2ccccc23)cn1
2200 nM | NC(=O)c1ccc2cc(C(=O)N3C[C@]4(CCN(C5CCNC5)C4)c4ccccc43)[nH]c2c1 (stereo partly drawn)
246 nM | C[C@@H]1CCC(N2CC[C@]3(CN(C(=O)c4cc5ccccc5[nH]4)c4ccccc43)C2)CN1 (stereo partly drawn)
2880 nM | CN1CCC(N2CC[C@]3(CN(C(=O)c4cc5cc(F)ccc5[nH]4)c4ccccc43)C2)CC1
495 nM | O=C(c1cc2cc(Cl)ccc2[nH]1)N1C[C@]2(CCN(C3CCNC3)C2)c2ccccc21 (stereo partly drawn)
